Source: EPA's ToxRefDB 2

Columns and labels:
rat [1] = conditions: Sub-acute dermal toxicity, sprague dawley, Topical, dose end: 21 day, group: systemic, systemic / in life observation / clinical signs / desquamation + systemic / in life observation / clinical signs / erythema + systemic / …
rat [2] = conditions: Multigenerational reproductive toxicity study, sprague dawley, Oral, Feed, dose end: 2 generation
rat [3] = conditions: Prenatal developmental toxicity study, wistar, Oral, Gavage/Intubation, dose end: 8 GD, group: maternal
dog [4] = conditions: Subchronic oral toxicity in nonrodent, beagle, Feed, dose end: 90 day, group: systemic, systemic / in life observation / clinical signs / pulse/pressure + systemic / organ weight / liver / nos
dog [5] = conditions: Chronic toxicity; beagle; Oral; Feed; dose end: 52 week; group: systemic; systemic / clinical chemistry / alkaline phosphatase (alp/alk) / alkaline phosphatase (alp/alk) + systemic / clinical chemistry / …
rat [6] = conditions: Combined chronic toxicity/carcinogenicity, sprague dawley, Oral, Feed, dose end: 30 month, group: systemic
mouse = conditions: Carcinogenicity, cd1, Oral, Feed, dose end: 105 week, group: systemic
rat [7] = conditions: Multigenerational reproductive toxicity study, sprague dawley, Oral, Gavage/Intubation, dose end: 1 generation
dog [8] = conditions: Subchronic oral toxicity in nonrodent, beagle, Capsule, dose end: 90 day, group: systemic, systemic / clinical chemistry / alanine aminotransferase (alt/sgpt) / alanine aminotransferase (alt/sgpt) + systemic / clinical chemistry / …
rat [9] = conditions: Subchronic oral toxicity in rodents, sprague dawley, Gavage/Intubation, dose end: 90 day, group: systemic
[10] = group: offspring, developmental / developmental landmark / vaginal opening / vaginal opening + systemic / in life observation / body weight / offspring (pup) …
[11] = group: parental, systemic / in life observation / body weight / body weight + systemic / in life observation / body weight / body weight gain
[12] = reproductive / reproductive performance / postimplantation loss / postimplantation loss + systemic / in life observation / body weight / …
[13] = systemic / in life observation / food consumption / food consumption
[14] = systemic / clinical chemistry / thyroxine (t4) / thyroxine (t4), total + systemic / organ weight / liver / absolute + systemic / organ …
[15] = systemic / in life observation / body weight / body weight + systemic / in life observation / body weight / body weight gain + systemic / …
[16] = group: offspring, systemic / organ weight / kidney / absolute + systemic / organ weight / liver / absolute
[17] = group: offspring, systemic / organ weight / kidney / absolute + systemic / organ weight / liver / absolute + systemic / in life observation / body weight / …
[18] = group: parental, systemic / organ weight / kidney / absolute + systemic / organ weight / liver / absolute
[19] = group: parental, systemic / organ weight / kidney / absolute + systemic / organ weight / liver / absolute + systemic / in life observation / body weight / …
[20] = group: reproductive, reproductive / reproductive performance / reproductive performance other / NOS + reproductive / reproductive performance / fertility / …
[21] = systemic / in life observation / body weight / body weight gain
[22] = systemic / in life observation / body weight / body weight gain + systemic / clinical chemistry / cholesterol / cholesterol + systemic / …

Question: `ClCCCCCCCl` [1,6-Dichlorohexane] was tested. Which LEL (rat [1]) did it give?
Answer: Its LEL is 100 mg/kg/day.

Question: And the LOAEL (rat [1])?
Answer: Its LOAEL is 100 mg/kg/day.

Question: And the NEL (rat [1])?
Answer: The NEL was less than 100 mg/kg/day.

Question: What about the NOAEL (rat [1]) of the same compound?
Answer: The NOAEL was less than 100 mg/kg/day.

Question: How did the LEL (rat [2]; [10]) turn out when `CC(C)(C)CC(C)(C)c1ccc(O)cc1` [4-(1,1,3,3-Tetramethylbutyl)phenol] was run?
Answer: The LEL was 100 mg/kg/day.

Question: What about the LOAEL (rat [2]; [10]) of the same compound?
Answer: Its LOAEL is greater than 100 mg/kg/day.

Question: And the NEL (rat [2]; [10])?
Answer: The NEL was 10 mg/kg/day.

Question: And the NOAEL (rat [2]; [10])?
Answer: Its NOAEL is no less than 100 mg/kg/day.

Question: What about the LEL (rat [2]; [11]) of the same compound?
Answer: Its LEL is 100 mg/kg/day.

Question: And the LOAEL (rat [2]; [11])?
Answer: Its LOAEL is greater than 100 mg/kg/day.

Question: What about the NEL (rat [2]; [11]) of the same compound?
Answer: Its NEL is 10 mg/kg/day.

Question: And the NOAEL (rat [2]; [11])?
Answer: The NOAEL was no less than 100 mg/kg/day.

Question: And the LOAEL (rat [3]; [12])?
Answer: The LOAEL was greater than 125 mg/kg/day.

Question: And the NOAEL (rat [3]; [12])?
Answer: The NOAEL was no less than 125 mg/kg/day.

Question: And the LEL (rat [3]; [13])?
Answer: Its LEL is 15.6 mg/kg/day.

Question: And the NEL (rat [3]; [13])?
Answer: The NEL was less than 15.6 mg/kg/day.

Question: With `Clc1ccccc1-c1nnc(-c2ccccc2Cl)nn1` [Clofentezine] as the compound, how does the LEL (dog [4]) read?
Answer: Its LEL is 80 mg/kg/day.

Question: And the LOAEL (dog [4])?
Answer: The LOAEL was 80 mg/kg/day.

Question: What about the NEL (dog [4]) of the same compound?
Answer: Its NEL is less than 80 mg/kg/day.

Question: What about the NOAEL (dog [4]) of the same compound?
Answer: Its NOAEL is less than 80 mg/kg/day.

Question: And the LEL (dog [5])?
Answer: The LEL was 25 mg/kg/day.

Question: And the LOAEL (dog [5])?
Answer: Its LOAEL is 25 mg/kg/day.

Question: And the NEL (dog [5])?
Answer: The NEL was 1.25 mg/kg/day.

Question: And the NOAEL (dog [5])?
Answer: The NOAEL was 1.25 mg/kg/day.

Question: What about the LEL (rat [6]; [14]) of the same compound?
Answer: The LEL was 17.3 mg/kg/day.

Question: What about the LOAEL (rat [6]; [14]) of the same compound?
Answer: Its LOAEL is 17.3 mg/kg/day.

Question: And the NOAEL (rat [6]; [14])?
Answer: Its NOAEL is 1.72 mg/kg/day.

Question: And the NEL (rat [6]; systemic / pathology microscopic / liver / hypertrophy + systemic / pathology microscopic / liver / vacuolization)?
Answer: Its NEL is 1.72 mg/kg/day.

Question: What about the LOAEL (mouse; [15]) of the same compound?
Answer: Its LOAEL is greater than 544 mg/kg/day.

Question: And the NEL (mouse; [15])?
Answer: Its NEL is 5 mg/kg/day.

Question: What about the NOAEL (mouse; [15]) of the same compound?
Answer: Its NOAEL is no less than 544 mg/kg/day.

Question: And the LEL (mouse; systemic / pathology gross / liver / mass)?
Answer: Its LEL is 50.7 mg/kg/day.

Question: Which results are given for `CCOc1ccc2c(c1)C(C)=CC(C)(C)N2` [Ethoxyquin]?
Answer: LEL (rat [7]; [16]): 75 mg/kg/day; NEL (rat [7]; [16]): < 75 mg/kg/day; LOAEL (rat [7]; [17]): > 300 mg/kg/day; NOAEL (rat [7]; [17]): ≥ 300 mg/kg/day; LEL (rat [7]; [18]): 75 mg/kg/day; NEL (rat [7]; [18]): < 75 mg/kg/day; LOAEL (rat [7]; [19]): > 300 mg/kg/day; NOAEL (rat [7]; [19]): ≥ 300 mg/kg/day; LEL (rat [7]; [20]): 300 mg/kg/day; LOAEL (rat [7]; [20]): > 300 mg/kg/day; NEL (rat [7]; [20]): 150 mg/kg/day; NOAEL (rat [7]; [20]): ≥ 300 mg/kg/day; LEL (dog [8]): 4 mg/kg/day; LOAEL (dog [8]): 4 mg/kg/day; NEL (dog [8]): 2 mg/kg/day; NOAEL (dog [8]): 2 mg/kg/day; LEL (rat [9]; [21]): 40 mg/kg/day; LOAEL (rat [9]; [21]): 40 mg/kg/day; NEL (rat [9]; [22]): 20 mg/kg/day; NOAEL (rat [9]; [22]): 20 mg/kg/day
